Measurements from PubChem BioAssay (NCI).
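Results reflect a 48-hour exposure of cells in 96-well plates to compound at five concentrations. Abbreviation: GI50, concentration required for 50% inhibition of growth. The concentration for full growth arrest is given as TGI.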

Tests used:
Assay in all cases: NCI anticancer screen, dose series, 48 h
786-0 renal = tested on: 786-0 renal
A498 renal = tested on: A498 renal
A549 NSCLC = tested on: A549 NSCLC
ACHN renal = tested on: ACHN renal
BT-549 breast = tested on: BT-549 breast
CAKI-1 renal = tested on: CAKI-1 renal
CCRF-CEM leukemia = tested on: CCRF-CEM leukemia
COLO 205 colon = tested on: COLO 205 colon
DU-145 prostate = tested on: DU-145 prostate
EKVX NSCLC = tested on: EKVX NSCLC
HCC-2998 colon = tested on: HCC-2998 colon
HCT-116 colon = tested on: HCT-116 colon
HCT-15 colon = tested on: HCT-15 colon
HL-60(TB) leukemia = tested on: HL-60(TB) leukemia
HOP-62 NSCLC = tested on: HOP-62 NSCLC
HOP-92 NSCLC = tested on: HOP-92 NSCLC
HS 578T breast = tested on: HS 578T breast
HT29 colon = tested on: HT29 colon
IGROV1 ovarian = tested on: IGROV1 ovarian
K-562 leukemia = tested on: K-562 leukemia
KM12 colon = tested on: KM12 colon
LOX IMVI melanoma = tested on: LOX IMVI melanoma
M14 melanoma = tested on: M14 melanoma
MALME-3M melanoma = tested on: MALME-3M melanoma
MCF7 breast = tested on: MCF7 breast
MDA-MB-231 breast = tested on: MDA-MB-231 breast
MDA-MB-435 = tested on: MDA-MB-435
MOLT-4 leukemia = tested on: MOLT-4 leukemia
NCI-H226 lung = tested on: NCI-H226 lung
NCI-H23 lung = tested on: NCI-H23 lung
NCI-H460 lung = tested on: NCI-H460 lung
NCI-H522 lung = tested on: NCI-H522 lung
NCI/ADR-RES ovarian = tested on: NCI/ADR-RES ovarian
OVCAR-3 ovarian = tested on: OVCAR-3 ovarian
OVCAR-4 ovarian = tested on: OVCAR-4 ovarian
OVCAR-5 ovarian = tested on: OVCAR-5 ovarian
OVCAR-8 ovarian = tested on: OVCAR-8 ovarian
PC-3 prostate = tested on: PC-3 prostate
RXF 393 renal = tested on: RXF 393 renal
SF-268 CNS = tested on: SF-268 CNS
SF-295 CNS = tested on: SF-295 CNS
SF-539 CNS = tested on: SF-539 CNS
SK-MEL-2 melanoma = tested on: SK-MEL-2 melanoma
SK-MEL-28 melanoma = tested on: SK-MEL-28 melanoma
SK-MEL-5 melanoma = tested on: SK-MEL-5 melanoma
SK-OV-3 ovarian = tested on: SK-OV-3 ovarian
SN12C renal = tested on: SN12C renal
SNB-19 CNS = tested on: SNB-19 CNS
SNB-75 CNS = tested on: SNB-75 CNS
SR leukemia = tested on: SR leukemia
SW-620 colon = tested on: SW-620 colon
T-47D breast = tested on: T-47D breast
TK-10 renal = tested on: TK-10 renal
U251 CNS = tested on: U251 CNS
UACC-257 melanoma = tested on: UACC-257 melanoma
UACC-62 melanoma = tested on: UACC-62 melanoma
UO-31 renal = tested on: UO-31 renal
RPMI-8226 leukemia = tested on: RPMI-8226 leukemia

## C=C(CCC(C)C1CCC2C3=C(C(=O)CC21C)C1(C)CCC(=O)[C@@H](C)C1CC3=O)C(C)C(=O)O (some centres undefined)
786-0 renal
  TGI: 37.8 µM
A498 renal
  TGI: > 100 µM
A549 NSCLC
  TGI: > 100 µM
ACHN renal
  TGI: 88.6 µM
BT-549 breast
  TGI: > 100 µM
CAKI-1 renal
  TGI: 72.3 µM
CCRF-CEM leukemia
  TGI: 42.2 µM
COLO 205 colon
  TGI: > 100 µM
DU-145 prostate
  TGI: > 100 µM
EKVX NSCLC
  TGI: > 100 µM
HCC-2998 colon
  TGI: > 100 µM
HCT-116 colon
  TGI: > 100 µM
HCT-15 colon
  TGI: > 100 µM
HL-60(TB) leukemia
  TGI: 32.6 µM
HOP-62 NSCLC
  TGI: > 100 µM
HOP-92 NSCLC
  TGI: 78.7 µM
HS 578T breast
  TGI: > 100 µM
HT29 colon
  TGI: > 100 µM
IGROV1 ovarian
  TGI: > 100 µM
K-562 leukemia
  TGI: 35.2 µM
KM12 colon
  TGI: > 100 µM
LOX IMVI melanoma
  TGI: 33.8 µM
M14 melanoma
  TGI: > 100 µM
MALME-3M melanoma
  TGI: > 100 µM
MCF7 breast
  TGI: > 100 µM
MDA-MB-231 breast
  TGI: > 100 µM
MDA-MB-435
  TGI: > 100 µM
MOLT-4 leukemia
  TGI: 74.9 µM
NCI-H226 lung
  TGI: > 100 µM
NCI-H23 lung
  TGI: > 100 µM
NCI-H460 lung
  TGI: > 100 µM
NCI-H522 lung
  TGI: > 100 µM
NCI/ADR-RES ovarian
  TGI: > 100 µM
OVCAR-3 ovarian
  TGI: > 100 µM
OVCAR-4 ovarian
  TGI: > 100 µM
OVCAR-5 ovarian
  TGI: > 100 µM
OVCAR-8 ovarian
  TGI: > 100 µM
PC-3 prostate
  TGI: > 100 µM
RXF 393 renal
  TGI: 57.4 µM
SF-268 CNS
  TGI: > 100 µM
SF-295 CNS
  TGI: > 100 µM
SF-539 CNS
  TGI: > 100 µM
SK-MEL-2 melanoma
  TGI: > 100 µM
SK-MEL-28 melanoma
  TGI: > 100 µM
SK-MEL-5 melanoma
  TGI: > 100 µM
SK-OV-3 ovarian
  TGI: 5.46 µM
SN12C renal
  TGI: > 100 µM
SNB-19 CNS
  TGI: > 100 µM
SNB-75 CNS
  TGI: > 100 µM
SR leukemia
  TGI: 74.8 µM
SW-620 colon
  TGI: > 100 µM
T-47D breast
  TGI: > 100 µM
TK-10 renal
  TGI: > 100 µM
U251 CNS
  TGI: > 100 µM
UACC-257 melanoma
  TGI: > 100 µM
UACC-62 melanoma
  TGI: > 100 µM
UO-31 renal
  TGI: 32.4 µM

## CCCc1c(CC)c(=N)c2ccccc2n1C
786-0 renal
  GI50: > 100 µM
  TGI: > 100 µM
A498 renal
  GI50: 22.8 µM
  TGI: > 100 µM
A549 NSCLC
  GI50: > 100 µM
  TGI: > 100 µM
ACHN renal
  GI50: > 100 µM
  TGI: > 100 µM
BT-549 breast
  GI50: 44.2 µM
  TGI: > 100 µM
CAKI-1 renal
  GI50: > 100 µM
  TGI: > 100 µM
CCRF-CEM leukemia
  GI50: > 100 µM
  TGI: > 100 µM
COLO 205 colon
  GI50: > 100 µM
  TGI: > 100 µM
DU-145 prostate
  GI50: > 100 µM
  TGI: > 100 µM
HCC-2998 colon
  GI50: > 100 µM
  TGI: > 100 µM
HCT-116 colon
  GI50: > 100 µM
  TGI: > 100 µM
HCT-15 colon
  GI50: > 100 µM
  TGI: > 100 µM
HL-60(TB) leukemia
  GI50: > 100 µM
  TGI: > 100 µM
HOP-62 NSCLC
  GI50: > 100 µM
  TGI: > 100 µM
HOP-92 NSCLC
  GI50: 30.5 µM
  TGI: > 100 µM
HS 578T breast
  GI50: > 100 µM
  TGI: > 100 µM
HT29 colon
  GI50: > 100 µM
  TGI: > 100 µM
IGROV1 ovarian
  GI50: > 100 µM
  TGI: > 100 µM
K-562 leukemia
  GI50: 51.1 µM
  TGI: > 100 µM
KM12 colon
  GI50: 39.3 µM
  TGI: > 100 µM
LOX IMVI melanoma
  GI50: > 100 µM
  TGI: > 100 µM
MALME-3M melanoma
  GI50: 42.6 µM
  TGI: > 100 µM
MCF7 breast
  GI50: 30 µM
  TGI: > 100 µM
MDA-MB-231 breast
  GI50: > 100 µM
  TGI: > 100 µM
MDA-MB-435
  GI50: > 100 µM
  TGI: > 100 µM
MOLT-4 leukemia
  GI50: > 100 µM
  TGI: > 100 µM
NCI-H226 lung
  GI50: 93.6 µM
  TGI: > 100 µM
NCI-H23 lung
  GI50: 37.7 µM
  TGI: > 100 µM
NCI-H460 lung
  GI50: > 100 µM
  TGI: > 100 µM
NCI-H522 lung
  GI50: 65.6 µM
  TGI: > 100 µM
NCI/ADR-RES ovarian
  GI50: > 100 µM
  TGI: > 100 µM
OVCAR-3 ovarian
  GI50: 59.9 µM
  TGI: > 100 µM
OVCAR-4 ovarian
  GI50: 20.1 µM
  TGI: > 100 µM
OVCAR-5 ovarian
  GI50: > 100 µM
  TGI: > 100 µM
OVCAR-8 ovarian
  GI50: 48.9 µM
  TGI: > 100 µM
PC-3 prostate
  GI50: 71.5 µM
  TGI: > 100 µM
RPMI-8226 leukemia
  GI50: 36.3 µM
  TGI: > 100 µM
RXF 393 renal
  GI50: > 100 µM
  TGI: > 100 µM
SF-268 CNS
  GI50: > 100 µM
  TGI: > 100 µM
SF-295 CNS
  GI50: 57 µM
  TGI: > 100 µM
SF-539 CNS
  GI50: > 100 µM
  TGI: > 100 µM
SK-MEL-2 melanoma
  GI50: > 100 µM
  TGI: > 100 µM
SK-MEL-28 melanoma
  GI50: 69.2 µM
  TGI: > 100 µM
SK-MEL-5 melanoma
  GI50: 24.9 µM
  TGI: > 100 µM
SK-OV-3 ovarian
  GI50: > 100 µM
  TGI: > 100 µM
SN12C renal
  GI50: 35.8 µM
  TGI: > 100 µM
SNB-19 CNS
  GI50: 34.5 µM
  TGI: > 100 µM
SNB-75 CNS
  GI50: 74.1 µM
  TGI: > 100 µM
SR leukemia
  GI50: > 100 µM
  TGI: > 100 µM
SW-620 colon
  GI50: > 100 µM
  TGI: > 100 µM
T-47D breast
  GI50: 33 µM
  TGI: > 100 µM
TK-10 renal
  GI50: > 100 µM
  TGI: > 100 µM
U251 CNS
  GI50: 47.9 µM
  TGI: > 100 µM
UACC-257 melanoma
  GI50: 47.3 µM
  TGI: > 100 µM
UACC-62 melanoma
  GI50: 66.3 µM
  TGI: > 100 µM
UO-31 renal
  GI50: > 100 µM
  TGI: > 100 µM
